# Assays:
# [1] = test system: dog; settings: Chronic toxicity, beagle, Oral, Feed, dose end: 104 week
# [2] = test system: rat; settings: Subchronic oral toxicity in rodents, Feed, dose end: 13 week
# [3] = test system: rat; settings: Combined chronic toxicity/carcinogenicity, sprague dawley, Oral, Feed, dose end: 103 week
# [4] = test system: rat; settings: Prenatal developmental toxicity study; sprague dawley; Oral; Gavage/Intubation; dose end: 15 GD; group: maternal; reproductive / reproductive performance / postimplantation loss / postimplantation loss + reproductive / reproductive performance / …
# [5] = test system: rat; settings: Multigenerational reproductive toxicity study, other, Oral, Feed, dose end: 2 generation
# [6] = test system: mouse; settings: Carcinogenicity; cd1; Oral; Feed; dose end: 78 week; group: systemic; systemic / in life observation / clinical signs / alopecia + systemic / in life observation / mortality / mortality + systemic / pathology …
# [7] = test system: rat; settings: Subchronic oral toxicity in rodents, fischer, Feed, dose end: 13 week, group: systemic
# [8] = test system: dog; settings: Chronic toxicity, beagle, Oral, Capsule, dose end: 52 week, group: systemic
# [9] = test system: rat; settings: Multigenerational reproductive toxicity study, other, Oral, Feed, dose end: 2 generation; remark: listed apart in the source
# [10] = test system: dog; settings: Chronic toxicity; beagle; Oral; Feed; dose end: 52 week; group: systemic; systemic / hematology / blood clotting / blood clotting - prothrombin time + systemic / hematology / erythrocyte (rbc) count differential / …
# [11] = test system: rat; settings: Subchronic inhalation toxicity, wistar, Whole-Body, dose end: 78 day, group: systemic, systemic / organ weight / kidney / nos + systemic / organ weight / liver / nos + systemic / organ weight / ovary / nos + systemic / …
# [12] = test system: rat; settings: Subchronic oral toxicity in rodents, sprague dawley, Feed, dose end: 13 week, group: systemic
# [13] = test system: mouse; settings: Carcinogenicity, cd1, Oral, Feed, dose end: 108 week, group: systemic
# [14] = test system: rat; settings: Prenatal developmental toxicity study, sprague dawley, Oral, Gavage/Intubation, dose end: 17 GD
# [15] = test system: rat; settings: Combined chronic toxicity/carcinogenicity; sprague dawley; Oral; Feed; dose end: 104 week; group: systemic; systemic / hematology / blood clotting / blood clotting - thromboplastin time + systemic / hematology / platelet / platelet + systemic / …
# [16] = test system: mouse; settings: Subchronic oral toxicity in rodents, cd1, Feed, dose end: 90 day, group: systemic
# [17] = test system: rabbit; settings: Prenatal developmental toxicity study, new zealand white, Oral, Gavage/Intubation, dose end: 28 GD
# [18] = test system: rabbit; settings: Prenatal developmental toxicity study, new zealand white, Oral, Gavage/Intubation, dose end: 20 GD
# [19] = test system: rat; settings: Subchronic oral toxicity in rodents, wistar, Feed, dose end: 90 day, group: systemic
# [20] = test system: rat; settings: Prenatal developmental toxicity study, wistar, Oral, Gavage/Intubation, dose end: 16 GD
# [21] = group: cholinesterase, cholinesterase / cholinesterase / cholinesterase / brain cholinesterase (che) + cholinesterase / cholinesterase / cholinesterase / whole …
# [22] = group: systemic, systemic / in life observation / water consumption / water consumption
# [23] = group: cholinesterase, cholinesterase / cholinesterase / cholinesterase / whole blood cholinesterase (che) + cholinesterase / cholinesterase / cholinesterase / …
# [24] = group: systemic, systemic / in life observation / food consumption / food consumption
# [25] = group: cholinesterase, cholinesterase / cholinesterase / cholinesterase / brain cholinesterase (che)
# [26] = group: cholinesterase, cholinesterase / cholinesterase / cholinesterase / brain cholinesterase (che) + cholinesterase / cholinesterase / cholinesterase / plasma …
# [27] = group: systemic, systemic / pathology microscopic / eye / cataract
# [28] = group: offspring, systemic / in life observation / body weight / offspring (pup) weight
# [29] = group: reproductive, reproductive / offspring survival early / dead fetuses / dead fetuses
# [30] = systemic / urinalysis / ph / ph
# [31] = systemic / pathology microscopic / parathyroid gland / cyst + systemic / pathology microscopic / pituitary gland / cyst
# [32] = group: offspring, systemic / organ weight / liver / relative to body weight
# [33] = group: offspring, systemic / organ weight / liver / relative to body weight + systemic / in life observation / body weight / offspring (pup) weight + systemic…
# [34] = group: parental, systemic / organ weight / thyroid gland / absolute
# [35] = systemic / clinical chemistry / alanine aminotransferase (alt/sgpt) / alanine aminotransferase (alt/sgpt) + systemic / clinical chemistry / …
# [36] = systemic / in life observation / body weight / body weight gain + systemic / in life observation / mortality / mortality
# [37] = systemic / in life observation / body weight / body weight gain + systemic / in life observation / mortality / mortality + systemic / …
# [38] = group: developmental, systemic / in life observation / clinical signs / mobility + systemic / in life observation / clinical signs / rearing activity + …
# [39] = group: maternal, systemic / in life observation / clinical signs / salivation
# [40] = systemic / hematology / erythrocyte (rbc) count differential / erythrocyte (rbc) + systemic / hematology / hematocrit (hct) / hematocrit (…
# [41] = group: developmental, systemic / in life observation / body weight / fetal weight
# [42] = group: maternal, reproductive / reproductive performance / aborted / aborted + reproductive / reproductive performance / postimplantation loss / …
# [43] = group: developmental, developmental / developmental malformation / bone / delayed ossification + developmental / developmental malformation / bone / short …
# [44] = group: maternal, systemic / in life observation / body weight / body weight loss + systemic / in life observation / clinical signs / inappetence + systemic…
# [45] = systemic / organ weight / heart / absolute + systemic / organ weight / heart / relative to body weight + systemic / clinical chemistry / …
# [46] = group: developmental, developmental / developmental malformation / bone / delayed ossification + developmental / developmental malformation / bone / unossified + …
# [47] = group: maternal, systemic / in life observation / body weight / body weight gain + systemic / in life observation / food consumption / food consumption
structure (smiles),measurement,setting,value
CNC(=O)Oc1cccc2c1OC(C)(C)O2 [Bendiocarb],LEL,[1]; [21],15 mg/kg/day
same,LOAEL,[1]; [21],15 mg/kg/day
same,NEL,[1]; [21],3 mg/kg/day
same,NOAEL,[1]; [21],3 mg/kg/day
same,LEL,[1]; [22],3 mg/kg/day
same,LOAEL,[1]; [22],> 15 mg/kg/day
same,NEL,[1]; [22],0.7 mg/kg/day
same,NOAEL,[1]; [22],≥ 15 mg/kg/day
same,NEL,"[2]; group: cholinesterase, cholinesterase / cholinesterase / cholinesterase / plasma cholinesterase (che) + cholinesterase / cholinesterase / cholinesterase / whole …",0.5 mg/kg/day
same,LEL,"[2]; group: cholinesterase, cholinesterase / cholinesterase / cholinesterase / whole blood cholinesterase (che)",2.5 mg/kg/day
same,LOAEL,[2]; [23],> 12.5 mg/kg/day
same,NOAEL,[2]; [23],≥ 12.5 mg/kg/day
same,LEL,[2]; [24],12.5 mg/kg/day
same,LOAEL,[2]; [24],12.5 mg/kg/day
same,NEL,[2]; [24],2.5 mg/kg/day
same,NOAEL,[2]; [24],2.5 mg/kg/day
same,LEL,[3]; [25],0.86 mg/kg/day
same,LOAEL,[3]; [25],0.86 mg/kg/day
same,NEL,[3]; [26],0.42 mg/kg/day
same,NOAEL,[3]; [26],0.42 mg/kg/day
same,LEL,[3]; [27],0.72 mg/kg/day
same,LOAEL,[3]; [27],0.72 mg/kg/day
same,NEL,[3]; [27],0.35 mg/kg/day
same,NOAEL,[3]; [27],0.35 mg/kg/day
same,LEL,[4],10 mg/kg/day
same,LOAEL,[4],10 mg/kg/day
same,NEL,[4],2 mg/kg/day
same,NOAEL,[4],2 mg/kg/day
Cc1ccc(-c2c(Cl)nc(C#N)n2S(=O)(=O)N(C)C)cc1 [Cyazofamid],LEL,[5]; [28],1000 mg/kg/day
same,LOAEL,[5]; [28],> 1000 mg/kg/day
same,NEL,[5]; [28],100 mg/kg/day
same,NOAEL,[5]; [28],≥ 1000 mg/kg/day
same,LEL,[5]; [29],1000 mg/kg/day
same,LOAEL,[5]; [29],> 1000 mg/kg/day
same,NEL,[5]; [29],100 mg/kg/day
same,NOAEL,[5]; [29],≥ 1000 mg/kg/day
same,LEL,[6],985 mg/kg/day
same,LOAEL,[6],985 mg/kg/day
same,NEL,[6],94.8 mg/kg/day
same,NOAEL,[6],94.8 mg/kg/day
same,LOAEL,[7]; systemic / pathology microscopic / kidney / basophilia + systemic / urinalysis / protein / protein,294 mg/kg/day
same,NOAEL,[7]; systemic / pathology microscopic / kidney / basophilia + systemic / urinalysis / protein / protein + systemic / urinalysis / ph / ph + …,29.5 mg/kg/day
same,LEL,[7]; [30],0.6 mg/kg/day
same,NEL,[7]; [30],< 0.6 mg/kg/day
same,LOAEL,[8]; [31],1000 mg/kg/day
same,NEL,[8]; [31],40 mg/kg/day
same,NOAEL,[8]; [31],200 mg/kg/day
same,LEL,[8]; systemic / pathology microscopic / pituitary gland / cyst,200 mg/kg/day
CCOc1ccc(C(C)(C)COCc2cccc(Oc3ccccc3)c2)cc1 [Etofenprox],LEL,[9]; [32],35 mg/kg/day
same,LOAEL,[9]; [32],35 mg/kg/day
same,NEL,[9]; [33],5 mg/kg/day
same,NOAEL,[9]; [33],5 mg/kg/day
same,LOAEL,"[9]; group: parental, systemic / organ weight / liver / relative to body weight",35 mg/kg/day
same,NOAEL,"[9]; group: parental, systemic / organ weight / liver / relative to body weight + systemic / in life observation / clinical signs / discharge on cageboard + …",5 mg/kg/day
same,LEL,[9]; [34],5 mg/kg/day
same,NEL,[9]; [34],< 5 mg/kg/day
same,LEL,[10],339 mg/kg/day
same,LOAEL,[10],339 mg/kg/day
same,NEL,[10],32.2 mg/kg/day
same,NOAEL,[10],32.2 mg/kg/day
same,LEL,[11],52.3 mg/kg/day
same,LOAEL,[11],52.3 mg/kg/day
same,NEL,[11],10.6 mg/kg/day
same,NOAEL,[11],10.6 mg/kg/day
same,LOAEL,[12]; [35],120 mg/kg/day
same,NOAEL,[12]; [35],20 mg/kg/day
same,LEL,[12]; systemic / clinical chemistry / glucose / glucose,23 mg/kg/day
same,NEL,[12]; systemic / clinical chemistry / glucose / glucose + systemic / clinical chemistry / alanine aminotransferase (alt/sgpt) / alanine …,3.8 mg/kg/day
same,LEL,[13]; [36],10.4 mg/kg/day
same,LOAEL,[13]; [36],10.4 mg/kg/day
same,NEL,[13]; [37],3.1 mg/kg/day
same,NOAEL,[13]; [37],3.1 mg/kg/day
same,LEL,"[14]; group: developmental, systemic / in life observation / clinical signs / mobility + systemic / in life observation / clinical signs / rearing activity",250 mg/kg/day
same,LOAEL,[14]; [38],5000 mg/kg/day
same,NEL,[14]; [38],12.5 mg/kg/day
same,NOAEL,[14]; [38],250 mg/kg/day
same,LOAEL,"[14]; group: maternal, systemic / in life observation / clinical signs / anogenital staining + systemic / in life observation / clinical signs / scabbing",5000 mg/kg/day
same,LEL,[14]; [39],12.5 mg/kg/day
same,NEL,[14]; [39],< 12.5 mg/kg/day
same,NOAEL,"[14]; group: maternal, systemic / in life observation / clinical signs / salivation + systemic / in life observation / clinical signs / anogenital staining + …",250 mg/kg/day
same,LEL,[15],1.1 mg/kg/day
same,LOAEL,[15],25.5 mg/kg/day
same,NEL,[15],< 1.1 mg/kg/day
same,NOAEL,[15],3.7 mg/kg/day
same,LOAEL,[16]; [40],375 mg/kg/day
same,NEL,[16]; [40],6.1 mg/kg/day
same,NOAEL,[16]; [40],60 mg/kg/day
same,LEL,[16]; systemic / hematology / mean corpuscular (cell) volume (mcv) / mean corpuscular (cell) volume (mcv) + systemic / hematology / monocytes / …,60 mg/kg/day
same,LEL,[17]; [41],300 mg/kg/day
same,LOAEL,[17]; [41],300 mg/kg/day
same,NEL,[17]; [41],100 mg/kg/day
same,NOAEL,[17]; [41],100 mg/kg/day
same,LEL,[17]; [42],300 mg/kg/day
same,LOAEL,[17]; [42],300 mg/kg/day
same,NEL,[17]; [42],100 mg/kg/day
same,NOAEL,[17]; [42],100 mg/kg/day
CCCCOC(=O)[C@@H](C)Oc1ccc(Oc2ccc(C(F)(F)F)cn2)cc1 [Fluazifop-P-butyl],LEL,[18]; [43],50 mg/kg/day
same,LOAEL,[18]; [43],50 mg/kg/day
same,NEL,[18]; [43],10 mg/kg/day
same,NOAEL,[18]; [43],10 mg/kg/day
same,LEL,[18]; [44],50 mg/kg/day
same,LOAEL,[18]; [44],50 mg/kg/day
same,NEL,[18]; [44],10 mg/kg/day
same,NOAEL,[18]; [44],10 mg/kg/day
same,LEL,[19]; [45],0.5 mg/kg/day
same,NEL,[19]; [45],< 0.5 mg/kg/day
same,LOAEL,[19]; systemic / organ weight / spleen / absolute + systemic / organ weight / spleen / relative to body weight + systemic / hematology / …,5 mg/kg/day
same,NOAEL,[19]; systemic / organ weight / spleen / absolute + systemic / organ weight / spleen / relative to body weight + systemic / organ weight / brain…,0.5 mg/kg/day
same,LEL,[20]; [46],20 mg/kg/day
same,LOAEL,[20]; [46],20 mg/kg/day
same,NEL,[20]; [46],1 mg/kg/day
same,NOAEL,[20]; [46],1 mg/kg/day
same,LOAEL,"[20]; group: maternal, systemic / in life observation / body weight / body weight gain",300 mg/kg/day
same,LEL,[20]; [47],300 mg/kg/day
same,NEL,[20]; [47],20 mg/kg/day
same,NOAEL,[20]; [47],20 mg/kg/day

# From EPA's ToxRefDB 2
